Results taken from patent publication US11479531B2, “Deoxyuridine triphosphatase inhibitors” (University of Southern California, priority 2015, dated 2022).

Key:
[1] = test system: colorectal (HCT116 and SW620) cell line models; experiment: MTS growth inhibition assay; format: cell-based; details: increasing concentrations of 5-FU between 0 and 100 μmol/L; both colorectal cancer cell lines (HCT116, SW620)
Method: The Cell Titer AQueous MTS assay (Promega) is carried out according to the manufacturers guidelines. […] The combination effect is determined by the combination index (CI) method utilizing Calcusyn software (Biosoft, Ferguson, Mo.). […] CI values <1, synergism; 1-1.2, additive and >1.2, antagonism.
Test compounds are evaluated for their antitumor activity in colorectal cancer cells using the MTS growth inhibition assay. HCT116 and SW620 cells are exposed to increasing concentrations of each agent for 72 hours and growth inhibition is directly compared to vehicle-treated controls. The NSCLC cell lines A549 and H1299 are exposed to increasing concentrations of each agent for 72 hours and growth inhibition is directly compared to vehicle-treated controls.
Simultaneous treatment with increasing concentrations of 5-FU and a test compound at fixed concentrations of 25 μmol/L is determined.

[2] = test system: colorectal (HCT116), breast (MCF-7) and non-small cell lung (H1299, A549, H358 and H460) cell line models; experiment: Colony forming assay; format: cell-based; details: increasing concentrations of FUdR between 0.5 and 2.5 μmol/L; all cell lines evaluated
Method: Colony forming assay showing the ability of colon (SW620, HCT116), non-small cell lung (A549, H460, H1299 and H358) and breast (MCF7) cancer cells to survive and proliferate following transient 24 hour exposure to test compounds, FUdR and combinations are determined. Specifically, cells are seeded at densities between 50 and 100 cells/well in 24-well plates. […] After 24 hours, drug is removed, cells are rinsed and allowed to outgrow for 10-14 days. At the conclusion of the outgrowth, cells are fixed in 60% ice cold methanol and stained with 0.1% crystal violet, scanned and counted. Data is presented as percentage of untreated controls (mean±SD). Fraction affected and combination indexes are calculated according to the method of Chou and Talalay where <1 is indicative of a synergistic drug interaction.
Colony forming assays are performed to evaluate the effectiveness of test compounds alone and in combination with the fluoropyrimidine thymidylate synthase (TS) inhibitor fluorodeoxyuridine (FUdR) at reducing cancer cell viability in colorectal (HCT116), breast (MCF-7) and non-small cell lung (H1299, A549, H358 and H460) cell line models.

SMILES	growth inhibition [1]	colonies formed [2]
O=c1[nH]cc(F)c(=O)[nH]1 [5-FU, 5-fluorouracil]	dose-dependent increases in growth inhibition	
O=c1[nH]c(=O)n([C@H]2C[C@H](O)[C@@H](CO)O2)cc1F [FUdR, fluorodeoxyuridine]		dose-dependent decreases in colonies formed
